Columns and labels:
NCI-H2122 [1] = assay: relative IC50 of cell viability (CellTiter-Glo); higher = less potent
Procedure, shortened: (§1)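 NCI-H2122 (800 cells/well), SW837 and NCI-H358 (500 cells/well) were seeded in 60 µl in 384-well plates. After 24 h, single compounds were dispensed acoustically in dose series and incubated 72 h (NCI-H2122, NCI-H358) or 144 h (SW837). Viability was read by CellTiter-Glo luminescence (15 min shaking, EnVision reader) and normalised to DMSO controls (percent of control). Relative IC50 (averaged over replicates) and the lower plateau come from a four-parameter nonlinear fit.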

NCI-H358 [2] = assay: as above
Procedure, shortened: as §1

SW837 [3] = assay: as above
Procedure, shortened: as §1

NCI-H2122 [4] = assay: fitted bottom plateau of viability curve, % of DMSO control; higher = less maximal inhibition; extreme values may be limits of the assay
Procedure, shortened: as §1

NCI-H358 [5] = assay: as above
Procedure, shortened: as §1

SW837 [6] = assay: as above
Procedure, shortened: as §1

Row | SMILES | relative IC50 of cell viability (NCI-H2122 [1]) [nM] | relative IC50 of cell viability (NCI-H358 [2]) [nM] | relative IC50 of cell viability (SW837 [3]) [nM] | fitted bottom plateau of viability curve (NCI-H2122 [4]) [%] | fitted bottom plateau of viability curve (NCI-H358 [5]) [%] | fitted bottom plateau of viability curve (SW837 [6]) [%]
1 | COc1cccc2c1C(=O)c1c(O)c3c(c(O)c1C2=O)C[C@@](O)(C(C)=O)C[C@@H]3O[C@H]1C[C@H](N)[C@H](O)[C@H](C)O1 [Daunorubicin] (top concentration tested 1000 nM) | 120 | 27.6 | 111 | 17.2 | 1.56 | 0.5
2 | COc1cc(Nc2ncc(F)c(Nc3ccc4c(n3)N(COP(=O)(O)O)C(=O)C(C)(C)O4)n2)cc(OC)c1OC [Fostamatinib] (top concentration tested 9999.9 nM) | 8750 | 2060 | 1680 | 37.4 | 0 | 47.6
3 | CCS(=O)(=O)Nc1ccc2c(c1)/C(=C(/Nc1ccc(CN3CCCCC3)cc1)c1ccccc1)C(=O)N2 [Hesperadin] (top concentration tested 10000 nM) | 19 | 43.7 | 366 | 5.85 | 0 | 0
4 | O=C(O)CNC(=O)c1c(O)c2ccccc2n(Cc2ccccc2)c1=O [IOX2] (top concentration tested 50000 nM) | 51400 | 10800 | – | 52.8 | 2.49 | 52.6
5 | NC1(c2ccc(-c3nc4ccn5c(=O)[nH]nc5c4cc3-c3ccccc3)cc2)CCC1 [MK-2206] (top concentration tested 10000 nM) | 2160 | 1990 | – | 31.8 | 33.4 | 79.9
6 | CC(C)n1nc(-c2ccc3oc(N)nc3c2)c2c(N)ncnc21 [MLN-0128] (top concentration tested 99.893 nM) | 25.9 | 27.2 | – | 22.6 | 17.7 | 85.3
7 | C=C(F)C(=O)N1CCN(c2nc(OC[C@@H]3CCCN3C)nc3c2CCN(c2cccc4cccc(Cl)c24)C3)C[C@@H]1CC#N [MRTX849 / Adagrasib] (top concentration tested 999.97 nM) | 39.7 | 25.2 | 304 | 7.33 | 1.24 | 0.0244
8 | O=C1c2c(O)ccc(O)c2C(=O)c2c(NCCNCCO)ccc(NCCNCCO)c21 [Mitoxantrone] (top concentration tested 999.98 nM) | 62.4 | 19.9 | 79.2 | 28.7 | 7.11 | 0
9 | COc1cc(N2CCC(N3CCN(C)CC3)CC2)ccc1Nc1ncc(Cl)c(Nc2ccccc2S(=O)(=O)C(C)C)n1 [NVP-TAE684] (top concentration tested 10000 nM) | 384 | 922 | – | 0.655 | 3.01 | 56.5
10 | C=CC(=O)Nc1cc(Nc2nccc(-c3cn(C)c4ccccc34)n2)c(OC)cc1N(C)CCN(C)C [Osimertinib] (top concentration tested 10000 nM) | 2560 | 1010 | 2210 | 0.698 | 0 | 11.4
11 | Cc1ccc(C(=O)Nc2ccc(CN3CCN(C)CC3)c(C(F)(F)F)c2)cc1C#Cc1cnc2cccnn12 [Ponatinib] (top concentration tested 10000 nM) | 887 | 2290 | 1250 | 0.652 | 0.0743 | 0
12 | CCc1nc(N)nc(N)c1-c1ccc(Cl)cc1 [Pyrimethamine] (top concentration tested 50000 nM) | 3430 | 8340 | 8070 | 28.9 | 45.5 | 39
13 | CCc1c2c(nc3ccc(O)cc13)-c1cc3c(c(=O)n1C2)COC(=O)[C@]3(O)CC [SN-38] (top concentration tested 99.894 nM) | 6.15 | 6.48 | 10.4 | 30.2 | 7.46 | 2.39
14 | Cc1nc(-c2cn3c(n2)-c2ccc(-c4cnn(C(C)(C)C(N)=O)c4)cc2OCC3)n(C(C)C)n1 [Taselisib] (top concentration tested 10000 nM) | 290 | 470 | – | 16.9 | 1.64 | 86
15 | COc1cc2/c(=N/c3ccc(Br)cc3F)nc[nH]c2cc1OCC1CCN(C)CC1 [Vandetanib] (top concentration tested 10000 nM) | 2070 | 1340 | – | 49.8 | 3.22 | 82.1
16 | CCNC(=O)C[C@@H]1N=C(c2ccc(Cl)cc2)c2cc(OC)ccc2-n2c(C)nnc21 [iBET-762] (top concentration tested 10000 nM) | – | 1430 | 839 | 59.6 | 53 | 37.6
